Assay results from ChEMBL document CHEMBL4602673, “Insights into Protein-Ligand Interactions in Integrin Complexes: Advances in Structure Determinations” (J Med Chem, 2020).
Bridge positions count the residues as written; N and C are the ends. Square brackets hold non-standard residues; d marks the D form. Peptide text beside a SMILES is read from it. hArg = N=C(N)NCCCC[C@H](N)C(=O)O; Mpa = O=C(O)CCS

What was measured:
[1] = molecular target: T1, Integrin alpha-L/beta-2 (LFA-1) (Homo sapiens, UniProt P05107+P20701); experiment: Binding affinity to human lymphocyte integrin alphaL beta2 (Cys125 to Gly311residues) expressed in Escherichia coli XL-1B cells by isothermal titration calorimetry
T1 sequence (P20701 whole entry): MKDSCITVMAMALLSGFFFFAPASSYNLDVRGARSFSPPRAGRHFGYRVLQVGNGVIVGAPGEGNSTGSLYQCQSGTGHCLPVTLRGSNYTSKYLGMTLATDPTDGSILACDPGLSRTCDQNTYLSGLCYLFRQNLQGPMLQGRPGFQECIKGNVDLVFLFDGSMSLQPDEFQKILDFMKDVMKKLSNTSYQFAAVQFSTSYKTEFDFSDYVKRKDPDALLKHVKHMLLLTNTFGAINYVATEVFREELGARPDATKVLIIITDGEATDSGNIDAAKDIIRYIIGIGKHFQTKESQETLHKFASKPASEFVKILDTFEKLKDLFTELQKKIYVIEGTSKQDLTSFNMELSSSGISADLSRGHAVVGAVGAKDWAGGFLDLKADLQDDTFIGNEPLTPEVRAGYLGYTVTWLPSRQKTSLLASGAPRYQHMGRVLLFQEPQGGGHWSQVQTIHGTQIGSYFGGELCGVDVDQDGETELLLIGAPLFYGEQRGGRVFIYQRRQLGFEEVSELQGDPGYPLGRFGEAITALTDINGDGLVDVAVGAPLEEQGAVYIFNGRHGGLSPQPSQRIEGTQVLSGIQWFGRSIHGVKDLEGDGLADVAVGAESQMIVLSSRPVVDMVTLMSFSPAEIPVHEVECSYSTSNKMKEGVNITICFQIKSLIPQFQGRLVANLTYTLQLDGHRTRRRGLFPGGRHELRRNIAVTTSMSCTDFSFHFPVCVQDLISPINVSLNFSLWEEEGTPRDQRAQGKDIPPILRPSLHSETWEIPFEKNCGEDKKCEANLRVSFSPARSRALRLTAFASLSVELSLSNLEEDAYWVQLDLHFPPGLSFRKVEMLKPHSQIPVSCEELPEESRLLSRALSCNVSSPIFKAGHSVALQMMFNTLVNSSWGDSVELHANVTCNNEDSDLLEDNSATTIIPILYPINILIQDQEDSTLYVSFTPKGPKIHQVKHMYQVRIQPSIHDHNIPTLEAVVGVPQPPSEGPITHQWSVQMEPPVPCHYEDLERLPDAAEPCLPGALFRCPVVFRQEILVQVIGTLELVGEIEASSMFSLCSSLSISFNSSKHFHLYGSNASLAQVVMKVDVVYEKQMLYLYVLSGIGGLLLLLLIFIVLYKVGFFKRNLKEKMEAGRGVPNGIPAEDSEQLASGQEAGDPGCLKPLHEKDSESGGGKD
T1 sequence (P05107 whole entry): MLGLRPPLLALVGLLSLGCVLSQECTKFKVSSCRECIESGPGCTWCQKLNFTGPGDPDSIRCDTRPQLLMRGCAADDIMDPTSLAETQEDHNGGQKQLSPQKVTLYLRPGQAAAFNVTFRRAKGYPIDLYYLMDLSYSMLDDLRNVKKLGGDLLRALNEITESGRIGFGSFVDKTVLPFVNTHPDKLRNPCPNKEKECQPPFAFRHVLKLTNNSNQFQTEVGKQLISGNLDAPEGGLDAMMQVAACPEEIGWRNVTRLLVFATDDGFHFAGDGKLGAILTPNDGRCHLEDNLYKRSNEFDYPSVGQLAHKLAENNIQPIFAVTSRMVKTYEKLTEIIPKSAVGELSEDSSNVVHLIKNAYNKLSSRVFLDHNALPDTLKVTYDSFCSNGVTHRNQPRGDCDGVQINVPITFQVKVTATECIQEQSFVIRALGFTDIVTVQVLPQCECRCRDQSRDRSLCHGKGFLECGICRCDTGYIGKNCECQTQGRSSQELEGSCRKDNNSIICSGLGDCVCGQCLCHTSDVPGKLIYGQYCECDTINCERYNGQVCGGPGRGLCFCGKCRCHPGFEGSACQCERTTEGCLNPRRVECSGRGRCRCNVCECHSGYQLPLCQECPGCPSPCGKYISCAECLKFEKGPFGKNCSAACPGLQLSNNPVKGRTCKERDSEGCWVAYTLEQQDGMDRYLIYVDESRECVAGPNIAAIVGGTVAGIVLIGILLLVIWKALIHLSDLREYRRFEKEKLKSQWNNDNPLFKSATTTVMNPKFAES

[2] = molecular target: T2, Integrin alpha-V/beta-3 (Homo sapiens, UniProt P05106+P06756); experiment: Inhibition of human integrin alphavbeta3 expressed in HEK293 cells assessed as reduction in cell adhesion to fibrinogen preincubated for 20 mins followed by phosphatase substrate addition and measured after 1 hr by spectrophotometry; type: cell-based
T2 sequence (P05106 27-788 limits assumed): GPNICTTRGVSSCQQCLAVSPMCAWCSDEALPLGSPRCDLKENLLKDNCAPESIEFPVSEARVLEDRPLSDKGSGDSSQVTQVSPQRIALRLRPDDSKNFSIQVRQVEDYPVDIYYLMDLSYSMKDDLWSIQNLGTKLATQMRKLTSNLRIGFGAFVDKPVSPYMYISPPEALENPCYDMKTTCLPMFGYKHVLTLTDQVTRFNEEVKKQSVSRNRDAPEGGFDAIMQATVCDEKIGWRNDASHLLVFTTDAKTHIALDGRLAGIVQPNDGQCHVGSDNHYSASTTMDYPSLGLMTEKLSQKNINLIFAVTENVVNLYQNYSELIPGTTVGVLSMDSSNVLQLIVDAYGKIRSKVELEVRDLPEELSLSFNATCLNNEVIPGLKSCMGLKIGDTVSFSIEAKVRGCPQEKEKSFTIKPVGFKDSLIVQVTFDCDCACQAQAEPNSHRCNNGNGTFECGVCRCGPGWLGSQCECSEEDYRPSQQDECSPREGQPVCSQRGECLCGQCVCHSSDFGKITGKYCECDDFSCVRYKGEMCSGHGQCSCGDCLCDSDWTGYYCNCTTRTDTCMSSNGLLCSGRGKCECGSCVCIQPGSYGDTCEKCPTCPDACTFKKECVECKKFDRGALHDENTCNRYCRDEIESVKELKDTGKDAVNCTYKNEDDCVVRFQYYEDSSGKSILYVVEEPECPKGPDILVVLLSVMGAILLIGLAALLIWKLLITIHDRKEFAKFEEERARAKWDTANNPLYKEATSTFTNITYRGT
T2 sequence (P06756 31-889 limits assumed): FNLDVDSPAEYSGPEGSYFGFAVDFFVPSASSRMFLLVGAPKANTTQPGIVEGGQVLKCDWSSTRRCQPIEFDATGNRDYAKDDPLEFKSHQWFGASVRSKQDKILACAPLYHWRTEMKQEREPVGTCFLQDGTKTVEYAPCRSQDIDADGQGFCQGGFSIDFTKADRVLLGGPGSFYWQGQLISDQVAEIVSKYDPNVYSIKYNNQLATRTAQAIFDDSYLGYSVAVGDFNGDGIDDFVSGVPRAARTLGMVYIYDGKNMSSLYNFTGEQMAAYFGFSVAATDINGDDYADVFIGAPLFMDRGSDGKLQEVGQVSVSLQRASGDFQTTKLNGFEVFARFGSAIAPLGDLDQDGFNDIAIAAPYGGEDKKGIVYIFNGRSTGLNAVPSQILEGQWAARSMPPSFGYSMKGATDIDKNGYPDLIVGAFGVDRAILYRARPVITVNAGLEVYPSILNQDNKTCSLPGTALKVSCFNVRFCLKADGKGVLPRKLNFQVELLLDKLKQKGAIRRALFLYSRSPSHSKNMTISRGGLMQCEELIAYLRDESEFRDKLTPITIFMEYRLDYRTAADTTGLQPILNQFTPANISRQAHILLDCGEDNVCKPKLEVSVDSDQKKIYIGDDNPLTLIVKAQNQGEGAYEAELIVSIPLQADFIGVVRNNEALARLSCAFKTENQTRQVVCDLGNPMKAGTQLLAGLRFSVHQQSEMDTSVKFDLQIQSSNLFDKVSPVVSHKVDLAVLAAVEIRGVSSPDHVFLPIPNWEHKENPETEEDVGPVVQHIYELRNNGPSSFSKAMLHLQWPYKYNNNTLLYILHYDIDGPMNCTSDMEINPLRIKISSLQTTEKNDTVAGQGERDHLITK
T2 sequence (P06756 891-1048 limits assumed): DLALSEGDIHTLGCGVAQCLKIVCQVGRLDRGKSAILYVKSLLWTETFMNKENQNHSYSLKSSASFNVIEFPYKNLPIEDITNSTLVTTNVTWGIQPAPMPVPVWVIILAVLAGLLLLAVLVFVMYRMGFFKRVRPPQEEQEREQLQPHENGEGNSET

[3] = molecular target: Integrin alpha-4/beta-1 (Homo sapiens, UniProt P05556+P13612); experiment: Binding affinity to human integrin alpha4beta1 incubated for 6 hrs by radioligand binding assay; type: protein-complex assay
[4] = molecular target: Integrin alpha2/beta1 (Homo sapiens, UniProt P05556+P17301); experiment: Inhibition of human alpha2 beta1 expressed in CHO cells assessed as reduction in cell adhesion to collagen type 1 incubated for 5 mins by DiOC6 dye based fluorescence microscopy
[5] = molecular target: T1, Integrin alpha-L/beta-2 (LFA-1); experiment: Inhibition of human integrin alphaL beta2 assessed as reduction in integrin alphaL beta2/ICAM1 protein-protein interaction by ELISA; type: protein-complex assay
[6] = molecular target: Integrin alpha-IIb/beta-3 (Homo sapiens, UniProt P05106+P08514); experiment: Inhibition of FITC-dodecapeptide binding to human integrin alpha2b beta3 receptor stably expressed in CHO Lec.3.2.8.1 cells by fluorescence anisotropy; type: cell-based
[7] = molecular target: Integrin alpha-V/beta-1 (Homo sapiens, UniProt P05556+P06756); experiment: Displacement of [3H] C8 from human integrin alphavbeta1 incubated for 6 hrs by competition binding assay; type: protein-complex assay
Chain of Integrin alpha-V/beta-1 (P05556 21-798 limits assumed): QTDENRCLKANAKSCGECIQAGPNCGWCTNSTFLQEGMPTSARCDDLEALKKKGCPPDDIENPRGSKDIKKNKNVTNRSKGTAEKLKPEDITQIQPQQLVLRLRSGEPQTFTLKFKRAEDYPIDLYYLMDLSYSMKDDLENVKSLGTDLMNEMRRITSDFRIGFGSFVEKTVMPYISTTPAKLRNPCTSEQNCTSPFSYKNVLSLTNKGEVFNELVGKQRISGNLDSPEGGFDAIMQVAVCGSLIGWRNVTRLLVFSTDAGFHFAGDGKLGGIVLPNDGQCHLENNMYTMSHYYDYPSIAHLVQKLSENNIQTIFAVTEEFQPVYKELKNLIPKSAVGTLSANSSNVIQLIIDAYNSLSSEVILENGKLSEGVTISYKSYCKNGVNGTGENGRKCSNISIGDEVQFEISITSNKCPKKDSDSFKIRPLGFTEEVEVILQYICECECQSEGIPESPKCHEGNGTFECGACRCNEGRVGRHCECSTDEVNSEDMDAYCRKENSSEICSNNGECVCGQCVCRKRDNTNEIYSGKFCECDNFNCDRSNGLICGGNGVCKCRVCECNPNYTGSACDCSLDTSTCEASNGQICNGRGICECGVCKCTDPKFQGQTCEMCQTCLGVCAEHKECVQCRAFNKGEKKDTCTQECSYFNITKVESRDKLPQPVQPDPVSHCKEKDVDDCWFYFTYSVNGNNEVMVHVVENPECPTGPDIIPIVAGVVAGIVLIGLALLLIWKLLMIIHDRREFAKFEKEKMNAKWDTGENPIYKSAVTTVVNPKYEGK
Chain of Integrin alpha-V/beta-1 (P06756 31-889 limits assumed): as the sequence (P06756 31-889 limits assumed) above
Chain of Integrin alpha-V/beta-1 (P06756 891-1048 limits assumed): as the sequence (P06756 891-1048 limits assumed) above

[8] = molecular target: T2, Integrin alpha-V/beta-3; experiment: Inhibition of human integrin alphavbeta3 (unknown origin); type: protein-complex assay

**Q.** Which Kd [1] does the source give for `CCOc1ccccc1Sc1ccc(-c2ccnc(N3CCN(C(C)=O)CC3)c2)cc1[N+](=O)[O-]` here?
**A.** 18.3 nM

**Q.** How did the IC50 [2] turn out when `COc1ccc([C@H](CC(=O)O)N2CCN(CCCc3ccc4c(n3)NCCC4)C2=O)cn1` was run?
**A.** 3 nM

**Q.** With `N=C(N)NCCCCC(=O)Nc1ccc(C[C@H](NC(=O)[C@@H]2CCCN2S(=O)(=O)c2ccccc2)C(=O)O)cc1` as the molecule, how does the Kd [3] read?
**A.** 0.794 nM

**Q.** `CN(c1ccc(NC(=O)Nc2ccccc2)cc1)S(=O)(=O)c1cnn(-c2ccc(F)cc2)c1` was tested. Which EC50 [4] did it give?
**A.** 130 nM

**Q.** With `CC[C@H](C)C(=O)OC1C[C@@H](C)C=C2C=C[C@H](C)[C@H](CC[C@@H]3C[C@H](CC(=O)NC)N(Cc4ccc(O)c(OC)c4)C(=O)O3)[C@H]21` (some centres not stated) as the molecule, how does the IC50 [5] read?
**A.** 50 nM

**Q.** For `N=C(N)c1ccc(C(=O)NCCC(=O)N[C@@H](CC(=O)O)C(=O)NC(Cc2ccccc2)C(=O)O)cc1` (some centres not stated), which IC50 [6] is on record?
**A.** 0.6 nM

**Q.** With `O=C(CCCCc1ccc2c(n1)NCCC2)NCC[C@H](NC(=O)c1nc2ccccc2s1)C(=O)O` as the molecule, how does the IC50 [2] read?
**A.** 25 nM

**Q.** Which IC50 [5] does the source give for `CC[C@H](C)C(=O)O[C@H]1C[C@@H](C)C=C2C=C[C@H](C)[C@H](CCC3C[C@@H](O)CC(=O)N3Cc3ccc4c(CO)c(OC)ccc4c3)[C@H]21` (some centres not stated) here?
**A.** 200 nM

**Q.** Which EC50 [4] does the source give for `CN(c1ccc(NC(=O)Nc2ccccc2)cc1)S(=O)(=O)c1ccc(-c2ccnn2C)s1` here?
**A.** 160 nM

**Q.** With `CCNC(=O)Nc1cnnc(-c2ccc(C[C@H](NC(=O)c3c(Cl)cccc3Cl)C(=O)O)cc2)c1` as the molecule, how does the Ki [7] read?
**A.** 0.166 nM

**Q.** How did the IC50 [8] turn out when `O=C(NC[C@H](NS(=O)(=O)c1cccnc1)C(=O)O)c1cc2cc(CCC3CCNCC3)sc2s1` was run?
**A.** 8 to 19 nM

**Q.** How did the Kd [8] turn out when `N=C(N)NCCCC[C@@H]1NC(=O)CCSSC[C@@H](C(N)=O)NC(=O)[C@@H]2CCCN2C(=O)[C@H](Cc2c[nH]c3ccccc23)NC(=O)[C@H](CC(=O)O)NC(=O)CNC1=O` [EPTIFIBATIDE] ([Mpa][hArg]GDWPC-NH2; disulfide 1-7) was run?
**A.** 120 nM
